This is an account of results in US20220226484A1, “THERAPEUTIC PEPTIDES” (COHBAR, INC., priority 2019, published 2022).

Positions of bridges follow the written chain, without caps; N, C: chain ends. Non-standard residues stand in square brackets, D forms with d. Primed or numbered codes have the meaning given here. Chains are numbered I, II in the order given. No end group written: not given here. PEG12′ = not defined here; Nle = CCCC[C@H](N)C(=O)O

Test [1] deals with 3T3-L1 Mouse Adipocytes. Description: Free fatty acid levels in cultured mouse adipocytes. The test is classed as cell-based. To be noted: peptide 10 μM, 1 nM isoproterenol, relative to isoproterenol treated cells. Here is the method: The effect of the peptides on fatty acid metabolism can be assessed using an assay of free fatty acid levels in cultured cells such as mouse adipocytes. Peptides were initially prepared as 10 mM stock in DMSO and used at a final concentration of 10 μM (0.1% DMSO). […] Mouse 3T3-L1 cells purchased from ZenBio were seeded at 3,000 cells per well in 96-well plates in Pre-adipocyte Medium (Zen-Bio) and grown to confluence at 37° C. in a humidified atmosphere of 5% CO2/95% air. Two days after confluence, cells were placed in Adipocyte Differentiation Medium (Zen-Bio) and cultured for three additional days at 37° C. in a humidified atmosphere of 5% CO2/95% air. The culture media was then replaced with Adipocyte Maintenance Medium (Zen-Bio) and the cells maintained for an additional 9-12 days at 37° C. in a humidified atmosphere of 5% CO2/95% air with partial medium replacement every other day. Following 12-15 days of differentiation, test peptides were added at a final concentration of 10 μM in 0.1% DMSO and incubated for 20-22 hours in Adipocyte Maintenance Medium at 37° C. in a humidified atmosphere of 5% CO2/95% air. After 20-22 hours, 1 nM isoproterenol was added to all wells except untreated controls and test peptides were replenished. Insulin at 100 nM was added to control wells. Cells were incubated for 3 hours in Assay Buffer (Zen-Bio) at 37° C. in a humidified atmosphere of 5% CO2/95% air. Free fatty acid concentrations in the media were determined using a Free Fatty Acid Assay kit (Zen-Bio) according to the manufacturer's instructions using a Cytation 3 plate reader at 540 nm (BioTek, Winooski, Vt.). Absorbance values were corrected for untreated background and expressed relative to isoproterenol treated cells. Treatment with isoproterenol (1 nM) alone was used as the free fatty acid level stimulatory control. The relative standard deviation of the isoproterenol control was <10%. […] Free fatty acid levels for insulin (100 nM) treatment were <5% of the isoproterenol control value.
The effect of the peptides on fatty acid metabolism was assessed using an assay of free fatty acid levels in cultured cells such as mouse adipocytes. Peptides were initially prepared as 10 mM stock in DMSO and used at a final concentration of 10 μM (0.1% DMSO). […] Mouse 3T3-L1 cells purchased from ZenBio were seeded at 3,000 cells per well in 96-well plates in Pre-adipocyte Medium (Zen-Bio) and grown to confluence at 37° C. in a humidified atmosphere of 5% CO2/95% air. Two days after confluence, cells were placed in Adipocyte Differentiation Medium (Zen-Bio) and cultured for three additional days at 37° C. in a humidified atmosphere of 5% CO2/95% air. The culture media was then replaced with Adipocyte Maintenance Medium (Zen-Bio) and the cells maintained for an additional 9-12 days at 37° C. in a humidified atmosphere of 5% CO2/95% air with partial medium replacement every other day. Following 12-15 days of differentiation, test peptides were added at a final concentration of 10 μM in 0.1% DMSO and incubated for 20-22 hours in Adipocyte Maintenance Medium at 37° C. in a humidified atmosphere of 5% CO2/95% air. After 20-22 hours, 1 nM isoproterenol was added to all wells except untreated controls and test peptides were replenished. Insulin at 100 nM was added to control wells. Cells were incubated for 3 hours in Assay Buffer (Zen-Bio) at 37° C. in a humidified atmosphere of 5% CO2/95% air. Free fatty acid concentrations in the media were determined using a Free Fatty Acid Assay kit (Zen-Bio) according to the manufacturer's instructions using a Cytation 3 plate reader at 540 nm (BioTek, Winooski, Vt.). Absorbance values were corrected for untreated background and expressed relative to isoproterenol treated cells. Treatment with isoproterenol (1 nM) alone was used as the free fatty acid level stimulatory control. The relative standard deviation of the isoproterenol control was <10%. […]

For test [2], the system named is C2C12 Mouse Myoblasts. Description: Glucose utilization. The test is classed as cell-based. The settings on record: peptide 10 μM, 18-22 hours, relative to 0.1% DMSO treated control. Here is the method: The effect of the peptides on glucose metabolism can be assessed using an assay of glucose utilization in cultured cultured cells such as mouse myoblasts. Peptides were initially prepared as 10 mM stock in DMSO and used at a final concentration of 10 μM (0.1% DMSO). C2C12 mouse myoblast cell line was purchased from American Type Culture Collection (Manassas, Va.). C2C12 cultures were maintained at 37° C. in a humidified atmosphere of 5% CO2/95% air with medium changes every second day. C2C12 cells were grown in DMEM (1 g/L glucose) supplemented with 10% FBS with 100 IU/ml penicillin and 100 μg/ml streptomycin. C2C12 cells were seeded at 7,000 cells per well on 96-well plates and cultured to confluence. Once the cell reached confluence the media was changed to DMEM (1 g/L glucose) supplemented with 2% HS with 100 IU/ml penicillin and 100 μg/ml streptomycin and maintained at 37° C. in a humidified atmosphere of 5% CO2/95% air. 5 days post-induction of differentiation fresh DMEM (1 g/L glucose) supplemented with 2% HS with 100 IU/ml penicillin and 100 μg/ml streptomycin was added to cultures. Cells were maintained at 37° C. in a humidified atmosphere of 5% CO2 and 95% air for 5 hours. After 5 hours test peptides at 10 μM or controls (0.5 mM or 1 mM metformin in 1% DMSO) prepared in fresh differentiation medium were added to cells and the cultures were maintained at 37° C. in a humidified atmosphere of 5% CO2/95% air for 18-22 hours. At the end of the incubation culture media was removed from the cells and the remaining glucose concentration was measured using a Glucose Assay kit (Abcam) according to the manufacturer's instructions, using a Cytation 3 plate reader at 570 nm (BioTek, Winooski, Vt.). Glucose concentrations in the medium were calculated relative to 0.1% DMSO treated control cells. The relative standard deviation of the result for the 0.1% DMSO treated control was <20%. Metformin was used as a positive control for reduction of glucose levels (increased glucose utilization glucose levels for treatment with metformin (1 mM) treatment were <20% of the 0.1% DMSO treated control value. The results are reported in Table 7.

With MRVIRMCLGVGLLGDLAG [SEQ ID NO: 2], the “Free Fatty Acid Levels, MEAN % ISO” value in test [1] (Table 6) was 26.4%; in test [1] (Table 12), 26%. The “Glucose Utilization (glucose in medium), Percent of Untreated Control” value in test [2] is recorded as 110.9%. As to “R(dA)IR(Nle)SLNVGLLGEL(dA) (R[dA]IR[Nle]SLNVGLLGEL[dA]) [SEQ ID NO: 15]”, the “Free Fatty Acid Levels, MEAN % ISO” value in test [1] (Table 12) is listed as 101%. The same measure, in the same setting: the same measure for “RVIR(Nle)CLNVGLLGEL(dA)G (RVIR[Nle]CLNVGLLGEL[dA]G) [SEQ ID NO: 6]”: 78%; for “RVIR(Nle)SLNVGLEGEL(dA) (RVIR[Nle]SLNVGLEGEL[dA]) [SEQ ID NO: 14]”: 64%. The same measure, in the same setting: the same measure for “RVIR(Nle)SLNVGLLGEL(dA)G (RVIR[Nle]SLNVGLLGEL[dA]G) [SEQ ID NO: 8]”: 64%. On to “RVIRMCLGVGLLGDL(dA)G (RVIRMCLGVGLLGDL[dA]G) [SEQ ID NO: 4]”, for which the “Free Fatty Acid Levels, MEAN % ISO” value in test [1] (Table 6) stood at 20.1%; in test [1] (Table 12), 20%. Besides, in test [2], the “Glucose Utilization (glucose in medium), Percent of Untreated Control” value is recorded as 107.3%. With “RVIRMCLGVGLLGDLAG (disulfide I:6-II:6) [SEQ ID NO: 26]”, the “Free Fatty Acid Levels, MEAN % ISO” value in test [1] (Table 12) came to 39%. Consider RVIRMCLGVGLLGDLAG [SEQ ID NO: 3], for which the “Free Fatty Acid Levels, MEAN % ISO” value in test [1] (Table 6) is on record as 19.7%; in test [1] (Table 12), 20%. Further, the “Glucose Utilization (glucose in medium), Percent of Untreated Control” value in test [2] was 108.0%. Consider “RVIRMCLGVGLLGDLAGK{PEG12} (RVIRMCLGVGLLGDLAGK(PEG12′)) [SEQ ID NO: 17]”, for which the “Free Fatty Acid Levels, MEAN % ISO” value in test [1] (Table 12) came out at 31%. The same measure, in the same setting: the same measure for “RVIRMCLNNGLLGEL(dA)G (RVIRMCLNNGLLGEL[dA]G) [SEQ ID NO: 9]”: 30%. Same read-out and setting: the same measure for “RVIRMCLNNGLNGEL(dA)E (RVIRMCLNNGLNGEL[dA]E) [SEQ ID NO: 23]”: 61%; for “RVIRMCLNVGLLGEL(dA)E (RVIRMCLNVGLLGEL[dA]E) [SEQ ID NO: 12]”: 22%.

As to “RVIRMCLNVGLLGEL(dA)G [SEQ ID NO: 5] (RVIRMCLNVGLLGEL[dA]G)”, the “Free Fatty Acid Levels, MEAN % ISO” value is recorded as 18.3% in test [1] (Table 6) and 18% in test [1] (Table 12). In addition, the “Glucose Utilization (glucose in medium), Percent of Untreated Control” value in test [2] turned out to be 111.2%.

“RVIRMCLNVGLNGEL(dA)G (RVIRMCLNVGLNGEL[dA]G) [SEQ ID NO: 11]”: in test [1] (Table 12), the “Free Fatty Acid Levels, MEAN % ISO” value came out at 36%. The same measure, in the same setting: in the case of “RVIRMCLNVGNLGEL(dA)G (RVIRMCLNVGNLGEL[dA]G) [SEQ ID NO: 10]” it was 29%; in that of “RVIRMSLNVGLEGEL(dA) (RVIRMSLNVGLEGEL[dA]) [SEQ ID NO: 13]”, 71%; in that of “RVIRMSLNVGLLGEL(dA)G (RVIRMSLNVGLLGEL[dA]G) [SEQ ID NO: 7]”, 77%.
